Test results taken from paper PMC6001238, “Iterative Chemical Engineering of Vancomycin Leads to Novel Vancomycin Analogs With a High in Vitro Therapeutic Index” (Frontiers in Microbiology, 2018).
Converted amounts (≈) assume the structure as drawn.

Assays:
E. faecalis VRE 6 = assay: MIC, broth microdilution, vancomycin-resistant E. faecalis VRE 6 (VanA); format: cell-based, Enterococcus faecalis; details: for MIC: Enterococcus faecalis VRE 6 (vancomycin-resistant), read-out: MIC; for MIC-fold improvement vs. vancomycin: VRE 6, ratio of MIC of vancomycin and MIC of analogue
Procedure, shortened: (§1)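 Controls (ultrapure water; broth not inoculated) were included throughout CLSI-compliant broth microdilution. One condition supplemented analogue or comparator with 10 μM vancomycin, final level.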

[1] = tested on: human cervix carcinoma (HeLa) cells; assay: Cytostatic activity, HeLa cell proliferation; format: cell-based; details: mean ± SD of three experiments; highest concentration tested 250 µM; 4 days; read-out: Toxicity (IC50) HeLa
Procedure, shortened: (§2)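 Test compounds, serially diluted, received an equal volume of cell suspension at 300,000–500,000 cells/mL. After 37°C incubation (2 days for L1210, 3 for CEM, 4 for HeLa), cells were enumerated by Coulter counting and 50%-inhibitory concentrations calculated per cell type.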

MRSA KS1 = assay: MIC, broth microdilution, MRSA KS1; format: cell-based, Staphylococcus aureus; details: for MIC-fold improvement vs. vancomycin: MRSA KS1, ratio of MIC of vancomycin and MIC of analogue; for MIC: Staphylococcus aureus MRSA KS1, read-out: MIC
Procedure, shortened: as §1

[2] = tested on: Murine leukemia (L1210) cells; assay: Cytostatic activity, L1210 cell proliferation; format: cell-based; details: mean ± SD of three experiments; highest concentration tested 250 µM; 2 days; read-out: Toxicity (IC50) L1210
Procedure, shortened: as §2

[3] = tested on: L1210, CEM and HeLa cell lines; assay: Cytostatic activity, average or summary over L1210, CEM and HeLa; format: cell-based; details: average of L1210, CEM and HeLa; read-out: Toxicity (IC50) Average
Procedure, shortened: as §2

E. faecalis VRE 53 = assay: MIC, broth microdilution, vancomycin-resistant E. faecalis VRE 53 (VanA); format: cell-based, Enterococcus faecalis; details: for MIC: Enterococcus faecalis VRE 53 (vancomycin-resistant), read-out: MIC; for MIC-fold improvement vs. vancomycin: VRE 53, ratio of MIC of vancomycin and MIC of analogue
Procedure, shortened: as §1

[4] = tested on: S. aureus VSSA (ATCC 6538); assay: MIC, broth microdilution, vancomycin-sensitive S. aureus (VSSA/MSSA, ATCC 6538); format: cell-based, Staphylococcus aureus; details: for MIC: Staphylococcus aureus VSSA, read-out: MIC; for MIC-fold improvement vs. vancomycin: VSSA, ratio of MIC of vancomycin and MIC of analogue
Procedure, shortened: as §1

E. faecalis VSE 1 = assay: MIC, broth microdilution, vancomycin-sensitive E. faecalis (VSE 1); format: cell-based, Enterococcus faecalis; details: for MIC: Enterococcus faecalis VSE 1 (vancomycin-sensitive), read-out: MIC; for MIC-fold improvement vs. vancomycin: VSE 1, ratio of MIC of vancomycin and MIC of analogue
Procedure, shortened: as §1

E. faecalis VRE 37 = assay: MIC, broth microdilution, vancomycin-resistant E. faecalis VRE 37 (VanA); format: cell-based, Enterococcus faecalis; details: for MIC: Enterococcus faecalis VRE 37 (vancomycin-resistant), read-out: MIC
Procedure, shortened: as §1

S. aureus VRSA = assay: MIC, broth microdilution, vancomycin-resistant S. aureus (VRSA); format: cell-based, Staphylococcus aureus; details: for MIC: Staphylococcus aureus VRSA, read-out: MIC; for MIC-fold improvement vs. vancomycin: VRSA, ratio of MIC of vancomycin and MIC of analogue
Procedure, shortened: as §1

MRSA KS2 = assay: MIC, broth microdilution, MRSA KS2; format: cell-based, Staphylococcus aureus; details: for MIC-fold improvement vs. vancomycin: MRSA KS2, ratio of MIC of vancomycin and MIC of analogue; for MIC: Staphylococcus aureus MRSA KS2, read-out: MIC
Procedure, shortened: as §1

MRSA KS6 = assay: MIC, broth microdilution, MRSA KS6; format: cell-based, Staphylococcus aureus; details: for MIC-fold improvement vs. vancomycin: MRSA KS6, ratio of MIC of vancomycin and MIC of analogue; for MIC: Staphylococcus aureus MRSA KS6, read-out: MIC
Procedure, shortened: as §1

MRSA KS89 = assay: MIC, broth microdilution, MRSA KS89; format: cell-based, Staphylococcus aureus; details: for MIC-fold improvement vs. vancomycin: MRSA KS8, ratio of MIC of vancomycin and MIC of analogue; for MIC: Staphylococcus aureus MRSA KS8, read-out: MIC
Procedure, shortened: as §1

E. faecalis VRE 29 = assay: MIC, broth microdilution, vancomycin-resistant E. faecalis VRE 29 (VanA); format: cell-based, Enterococcus faecalis; details: for MIC: Enterococcus faecalis VRE 29 (vancomycin-resistant), read-out: MIC; for MIC-fold improvement vs. vancomycin: VRE 29, ratio of MIC of vancomycin and MIC of analogue
Procedure, shortened: as §1

S. aureus VISA/HIP5827 = assay: MIC, broth microdilution, vancomycin-intermediate S. aureus VISA HIP5827; format: cell-based, Staphylococcus aureus; details: for MIC: Staphylococcus aureus VISA/HIP5827, read-out: MIC; for MIC-fold improvement vs. vancomycin: VISA/HIP5827, ratio of MIC of vancomycin and MIC of analogue
Procedure, shortened: as §1

[5] = tested on: human T-lymphocyte (CEM) cells; assay: Cytostatic activity, CEM cell proliferation; format: cell-based; details: mean ± SD of three experiments; highest concentration tested 250 µM; 3 days; read-out: Toxicity (IC50) CEM
Procedure, shortened: as §2

SMILES	MIC (E. faecalis VRE 6) [µM]	MIC-fold improvement vs. vancomycin (E. faecalis VRE 6)	IC50 [1] [µM]	MIC-fold improvement vs. vancomycin (MRSA KS1)	MIC (MRSA KS1) [µM]	IC50 [2] [µM]	IC50 [3] [µM]	MIC (E. faecalis VRE 53) [µM]	MIC-fold improvement vs. vancomycin (E. faecalis VRE 53)	MIC [4] [µM]	MIC-fold improvement vs. vancomycin [4]	MIC (E. faecalis VSE 1) [µM]	MIC-fold improvement vs. vancomycin (E. faecalis VSE 1)	MIC (E. faecalis VRE 37) [µM]	MIC (S. aureus VRSA) [µM]	MIC-fold improvement vs. vancomycin (S. aureus VRSA)	MIC-fold improvement vs. vancomycin (MRSA KS2)	MIC (MRSA KS2) [µM]	MIC-fold improvement vs. vancomycin (MRSA KS6)	MIC (MRSA KS6) [µM]	further results
CNC(CC(C)C)C(=O)NC1C(=O)NC(CC(N)=O)C(=O)NC2C(=O)NC3C(=O)NC(C(=O)NC(C(=O)NCCCNC(=O)c4ccc(-c5ccc(-c6ccccc6)cc5)cc4)c4cc(O)cc(O)c4-c4cc3ccc4O)C(O)c3ccc(c(Cl)c3)Oc3cc2cc(c3OC2OC(CO)C(O)C(O)C2OC2CC(C)(N)C(O)C(C)O2)Oc2ccc(cc2Cl)C1O (stereo not shown) [Vanc-35]	0.39 (≈ 0.687 µg/mL)	513	17 ± 2	1	0.78 (≈ 1.37 µg/mL)	4.1 ± 0.5	7	6.25 (≈ 11 µg/mL)	64	0.05 (≈ 0.0881 µg/mL)	16	0.20 (≈ 0.352 µg/mL)	8	1.56 (≈ 2.75 µg/mL)	1.56 (≈ 2.75 µg/mL)	64	2	0.39 (≈ 0.687 µg/mL)	4	0.20 (≈ 0.352 µg/mL)	MIC-fold improvement vs. vancomycin (E. faecalis VRE 37; VRE 37, ratio of MIC of vancomycin and MIC of analogue): 256; MIC-fold improvement vs. vancomycin (MRSA KS89): 4; MIC (MRSA KS89): 0.20 µM (≈ 0.352 µg/mL); MIC (E. faecalis VRE 29): 1.56 µM (≈ 2.75 µg/mL); MIC-fold improvement vs. vancomycin (E. faecalis VRE 29): 256; MIC (S. aureus VISA/HIP5827): 0.05 µM (≈ 0.0881 µg/mL); MIC-fold improvement vs. vancomycin (S. aureus VISA/HIP5827): 128; IC50 [5]: 0.98 ± 0.06 µM
CNC(CC(C)C)C(=O)NC1C(=O)NC(CC(N)=O)C(=O)NC2C(=O)NC3C(=O)NC(C(=O)NC(C(=O)NCCCNC(=O)c4ccc5ccccc5n4)c4cc(O)cc(O)c4-c4cc3ccc4O)C(O)c3ccc(c(Cl)c3)Oc3cc2cc(c3OC2OC(CO)C(O)C(O)C2OC2CC(C)(N)C(O)C(C)O2)Oc2ccc(cc2Cl)C1O (stereo not shown) [Vanc-27]	3.13 (≈ 5.2 µg/mL)	64	76 ± 8	2	0.39 (≈ 0.648 µg/mL)	> 250	185	25 (≈ 41.5 µg/mL)	16	0.39 (≈ 0.648 µg/mL)	2	0.39 (≈ 0.648 µg/mL)	4	12.5 (≈ 20.8 µg/mL)	6.25 (≈ 10.4 µg/mL)	16	2	0.39 (≈ 0.648 µg/mL)	2	0.39 (≈ 0.648 µg/mL)	MIC-fold improvement vs. vancomycin (MRSA KS89): 1; MIC (MRSA KS89): 0.78 µM (≈ 1.3 µg/mL); MIC (E. faecalis VRE 29): 12.5 µM (≈ 20.8 µg/mL); MIC-fold improvement vs. vancomycin (E. faecalis VRE 29): 32; MIC (S. aureus VISA/HIP5827): 0.39 µM (≈ 0.648 µg/mL); MIC-fold improvement vs. vancomycin (S. aureus VISA/HIP5827): 16; IC50 [5]: 229 ± 30 µM
